Assay results from the NIST ThermoML archive (doi:10.1021/je300938w).
± gives the expanded uncertainty stated by the source.

Tests used:
[1] = wn = mass fraction of the nth substance listed; details: 101 kPa, Liquid; for mass density: Vibrating tube method; for viscosity: Concentric cylinders viscometry
[2] = refractive index (Na D-line) (dimensionless); wn = mass fraction of the nth substance listed; details: 101 kPa, Liquid, Standard Abbe refractometry

CC(O)CN (stereo not given) [1-amino-2-propanol] + O
Details | mass density, [1] [kg/m3] | refractive index, [2] | viscosity, [1] [mPa·s]
298.15 K, w1 = 0.05 | – | 1.33891 ± 0.00031 | –
298.15 K, w1 = 0.1 | – | 1.34586 ± 0.00032 | –
298.15 K, w1 = 0.15 | – | 1.35281 ± 0.00032 | –
298.15 K, w1 = 0.2 | – | 1.35955 ± 0.00033 | –
298.15 K, w1 = 0.25 | – | 1.36649 ± 0.00033 | –
303.15 K, w1 = 0.05 | – | 1.33825 ± 0.00031 | –
303.15 K, w1 = 0.1 | – | 1.34506 ± 0.00032 | –
303.15 K, w1 = 0.15 | – | 1.35201 ± 0.00032 | –
303.15 K, w1 = 0.2 | – | 1.35875 ± 0.00033 | –
303.15 K, w1 = 0.25 | – | 1.3656 ± 0.00033 | –
308.15 K, w1 = 0.05 | – | 1.33749 ± 0.00031 | –
308.15 K, w1 = 0.1 | – | 1.34432 ± 0.00032 | –
308.15 K, w1 = 0.15 | – | 1.35092 ± 0.00032 | –
308.15 K, w1 = 0.2 | – | 1.35767 ± 0.00033 | –
308.15 K, w1 = 0.25 | – | 1.36461 ± 0.00033 | –
313.15 K, w1 = 0.05 | – | 1.33668 ± 0.00031 | –
313.15 K, w1 = 0.1 | – | 1.34343 ± 0.00032 | –
313.15 K, w1 = 0.15 | – | 1.35012 ± 0.00032 | –
313.15 K, w1 = 0.2 | – | 1.35672 ± 0.00033 | –
313.15 K, w1 = 0.25 | – | 1.36347 ± 0.00033 | –
318.15 K, w1 = 0.05 | – | 1.33578 ± 0.00031 | –
318.15 K, w1 = 0.1 | – | 1.34259 ± 0.00032 | –
318.15 K, w1 = 0.15 | – | 1.34908 ± 0.00032 | –
318.15 K, w1 = 0.2 | – | 1.35573 ± 0.00033 | –
318.15 K, w1 = 0.25 | – | 1.36228 ± 0.00033 | –
323.15 K, w1 = 0.05 | – | 1.33483 ± 0.00031 | –
323.15 K, w1 = 0.1 | – | 1.34154 ± 0.00032 | –
323.15 K, w1 = 0.15 | – | 1.34799 ± 0.00032 | –
323.15 K, w1 = 0.2 | – | 1.35454 ± 0.00033 | –
323.15 K, w1 = 0.25 | – | 1.36109 ± 0.00033 | –
328.15 K, w1 = 0.05 | – | 1.33384 ± 0.00031 | –
328.15 K, w1 = 0.1 | – | 1.3405 ± 0.00032 | –
328.15 K, w1 = 0.15 | – | 1.34705 ± 0.00032 | –
328.15 K, w1 = 0.2 | – | 1.3533 ± 0.00033 | –
328.15 K, w1 = 0.25 | – | 1.35985 ± 0.00033 | –
333.15 K, w1 = 0.05 | 984.143 ± 0.046 | 1.3328 ± 0.00031 | –
333.15 K, w1 = 0.1 | 984.015 ± 0.054 | 1.33936 ± 0.00032 | –
333.15 K, w1 = 0.15 | 983.779 ± 0.066 | 1.34581 ± 0.00032 | –
333.15 K, w1 = 0.2 | 983.615 ± 0.082 | 1.35211 ± 0.00033 | –
333.15 K, w1 = 0.25 | 983.616 ± 0.1 | 1.35861 ± 0.00033 | –
338.15 K, w1 = 0.05 | 981.41 ± 0.047 | 1.33173 ± 0.00031 | 0.5381 ± 0.0059
338.15 K, w1 = 0.1 | 981.198 ± 0.055 | 1.33832 ± 0.00032 | 0.6053 ± 0.0061
338.15 K, w1 = 0.15 | 980.853 ± 0.067 | 1.34462 ± 0.00032 | 0.6919 ± 0.0064
338.15 K, w1 = 0.2 | 980.549 ± 0.083 | 1.35092 ± 0.00033 | 0.8 ± 0.0068
338.15 K, w1 = 0.25 | 980.398 ± 0.1 | 1.35753 ± 0.00033 | 0.9015 ± 0.0073
343.15 K, w1 = 0.05 | 978.537 ± 0.048 | 1.33057 ± 0.00031 | 0.5152 ± 0.0059
343.15 K, w1 = 0.1 | 978.237 ± 0.057 | 1.33713 ± 0.00032 | 0.5701 ± 0.006
343.15 K, w1 = 0.15 | 977.785 ± 0.069 | 1.34343 ± 0.00032 | 0.6478 ± 0.0063
343.15 K, w1 = 0.2 | 977.354 ± 0.084 | 1.34968 ± 0.00033 | 0.7408 ± 0.0066
343.15 K, w1 = 0.25 | 977.059 ± 0.1 | 1.35614 ± 0.00033 | 0.8266 ± 0.007
